Earlier results as cited in paper PMC7887855 (ACS Pharmacology & Translational Science, 2020).

Test system: Mtb
Conditions: multiple daily IP injections, mice

## C=Cc1c2[n-]c(c1C)/C=c1\[n-]/c(c(C)c1C=C)=C\c1[n-]c(c(CCC(=O)O)c1C)C=c1[n-]/c(c(C)c1CCC(=O)O)=C\2.[Sn+4] [SnPPIX, tin protoporphyrin IX]
  effect on mycobacterial load as monotherapy: significantly decrease mycobacterial load
  effect on treatment time in combination with conventional TB antibiotics: reduced treatment time by over one month
